From US20150274719A1, “AMINO-SUBSTITUTED IMIDAZO[1,2-A]PYRIDINECARBOXAMIDES AND THEIR USE” (BAYER PHARMA AKTIENGESELLSCHAFT, priority 2012, published 2015)

Target: T1, recombinant guanylate cyclase reporter cell line (Rattus norvegicus, UniProt P19686+P20595)
T1 construct: expressed in transfected cells; host or cells: recombinant reporter cell line
T1 sequence (P19686 1-690): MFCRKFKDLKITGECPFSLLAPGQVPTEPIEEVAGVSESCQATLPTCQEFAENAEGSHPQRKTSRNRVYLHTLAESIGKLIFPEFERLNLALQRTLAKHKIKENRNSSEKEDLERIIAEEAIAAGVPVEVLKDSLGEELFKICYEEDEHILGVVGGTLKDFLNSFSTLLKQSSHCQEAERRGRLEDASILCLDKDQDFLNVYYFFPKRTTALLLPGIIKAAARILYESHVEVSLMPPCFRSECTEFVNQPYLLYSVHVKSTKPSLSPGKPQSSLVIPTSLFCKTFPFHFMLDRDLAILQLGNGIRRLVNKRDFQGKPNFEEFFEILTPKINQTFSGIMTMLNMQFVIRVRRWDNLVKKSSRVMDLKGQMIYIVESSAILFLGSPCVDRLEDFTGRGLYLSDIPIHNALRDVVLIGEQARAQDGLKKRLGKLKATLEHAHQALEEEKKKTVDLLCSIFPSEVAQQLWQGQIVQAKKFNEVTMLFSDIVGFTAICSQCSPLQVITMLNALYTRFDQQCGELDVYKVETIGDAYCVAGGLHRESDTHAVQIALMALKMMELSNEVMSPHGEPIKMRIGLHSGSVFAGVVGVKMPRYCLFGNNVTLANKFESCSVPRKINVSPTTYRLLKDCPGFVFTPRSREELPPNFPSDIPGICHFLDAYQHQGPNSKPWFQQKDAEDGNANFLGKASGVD
T1 sequence (P20595 1-619): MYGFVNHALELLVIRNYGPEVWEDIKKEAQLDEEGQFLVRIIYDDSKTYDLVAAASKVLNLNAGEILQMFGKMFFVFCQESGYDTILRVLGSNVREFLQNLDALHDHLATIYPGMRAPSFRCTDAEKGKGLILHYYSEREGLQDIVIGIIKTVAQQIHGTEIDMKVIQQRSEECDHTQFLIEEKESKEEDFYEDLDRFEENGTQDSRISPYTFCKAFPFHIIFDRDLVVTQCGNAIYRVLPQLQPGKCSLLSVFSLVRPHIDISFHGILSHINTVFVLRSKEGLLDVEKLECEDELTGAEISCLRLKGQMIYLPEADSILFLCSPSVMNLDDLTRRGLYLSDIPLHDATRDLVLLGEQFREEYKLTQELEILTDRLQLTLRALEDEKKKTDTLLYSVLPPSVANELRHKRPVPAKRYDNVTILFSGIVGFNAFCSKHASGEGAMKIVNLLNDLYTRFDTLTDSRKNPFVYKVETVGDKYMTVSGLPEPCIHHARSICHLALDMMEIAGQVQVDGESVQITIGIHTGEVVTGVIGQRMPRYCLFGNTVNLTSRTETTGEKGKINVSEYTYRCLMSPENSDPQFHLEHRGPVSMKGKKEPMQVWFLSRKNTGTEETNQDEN
Assay: Action on recombinant guanylate cyclase reporter cell line
Type: cell-based
Settings: in some cases mean values from individual determinations
Outline: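 MEC values, meaning the lowest concentration producing a detectable response, were taken from a recombinant cyclase reporter cell assay. Where repeated, individual determinations were averaged.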

SMILES | MEC (minimal effective concentration)
Cc1cc(OCc2c(F)cccc2F)c2nc(C)c(C(=O)NC3CNc4ccccc4C3)n2c1 (racemic) [Example 76, rac-8-[(2,6-difluorobenzyl)oxy]-2,6-dimethyl-N-(1,2,3,4-tetrahydroquinolin-3-yl)imidazo[1,2-a]-pyridine-3-carboxamide] | 0.30 µM
Cc1cc(OCc2c(F)cccc2F)c2nc(C)c(C(=O)NCC3(N)CC3)n2c1 [Example 40, N-[(1-aminocyclopropyl)methyl]-8-[(2,6-difluorobenzyl)oxy]-2,6-dimethylimidazo[1,2-a]-pyridine-3-carboxamide] | 0.10 µM
Cc1nc2c(OCc3c(F)cccc3F)cccn2c1C(=O)N[C@H]1CCNC1 [Example 61, 8-[(2,6-Difluorobenzyl)oxy]-2-methyl-N-[(3S)-pyrrolidin-3-yl]imidazo[1,2-a]pyridine-3-carboxamide] | 3.00 µM
Cc1nc2c(OCc3c(F)cccc3F)cccn2c1C(=O)NCC(N)CC(F)(F)F (single isomer, unassigned) [Example 127, ent-N-(2-Amino-4,4,4-trifluorobutyl)-8-[(2,6-difluorobenzyl)oxy]-2-methylimidazo[1,2-a]pyridine-3-carboxamide] | 1.00 µM
COc1cccc(F)c1COc1cc(C)cn2c(C(=O)NCC(C)(C)N)c(C)nc12 [Example 352, N-(2-amino-2-methylpropyl)-8-[(2-fluoro-6-methoxybenzyl)oxy]-2,6-dimethylimidazo[1,2-a]pyridine-3-carboxamide] | 3.00 µM
Cc1nc2c(OCc3c(F)cccc3F)cccn2c1C(=O)NCC(N)C(C)C (single isomer, unassigned) [Example 228, ent-N-(2-Amino-3-methylbutyl)-8-[(2,6-difluorobenzyl)oxy]-2-methylimidazo[1,2-a]pyridine-3-carboxamide] | 1.00 µM
Cc1nc2c(OCc3c(F)cccc3F)cc(Cl)cn2c1C(=O)NCCN1CCN(C(C)C)CC1 [Example 152, 6-chloro-8-[(2,6-difluorobenzyl)oxy]-N-[2-(4-isopropylpiperazin-1-yl)ethyl]-2-methyl-imidazo[1,2-a]pyridine-3-carboxamide] | 1.00 µM
CCCC(C)(N)CNC(=O)c1c(C)nc2c(OCc3c(F)cccc3F)cc(N3CCOCC3)cn12 (single isomer, unassigned; enantiomer b) [Example 280, ent-N-(2-amino-2-methylpentyl)-8-[(2,6-difluorobenzyl)oxy]-2-methyl-6-(morpholin-4-yl)imidazo[1,2-a]pyridine-3-carboxamide (Enantiomer B)] | 0.65 µM
Cc1nc2c(OCc3c(F)cccc3F)cc(Cl)cn2c1C(=O)NCC(C)(N)C(F)(F)F (racemic) [Example 236, rac-N-(2-Amino-3,3,3-trifluoro-2-methylpropyl)-6-chloro-8-[(2,6-difluorobenzyl)oxy]-2-methyl-imidazo[1,2-a]pyridine-3-carboxamide] | 0.30 µM
Cc1cc(OCc2c(F)cccc2F)c2nc(C)c(C(=O)NC(CN)c3ccc(F)c(F)c3)n2c1 (stereo not drawn) [Example 51, ent-N-[2-Amino-1-(3,4-difluorophenyl)ethyl]-8-[(2,6-difluorobenzyl)oxy]-2,6-dimethylimidazo-[1,2-a]pyridine-3-carboxamide] | 0.20 µM
Cc1nc2c(OCc3c(F)cccc3F)cccn2c1C(=O)NC(C)[C@@H](C)N (stereo partly drawn) [Example 121, N-[(3R)-3-Aminobutan-2-yl]-8-[(2,6-difluorobenzyl)oxy]-2-methylimidazo[1,2-a]pyridine-3-carboxamide] | 0.30 µM
Cc1nc2c(OCc3c(F)cccc3F)cccn2c1C(=O)NC1CNc2ccccc21 (racemic) [Example 28, rac-8-[(2,6-difluorobenzyl)oxy]-N-(2,3-dihydro-1H-indol-3-yl)-2-methylimidazo[1,2-a]pyridine-3-carboxamide] | 0.30 µM
Cc1cc(OCc2c(F)cccc2F)c2nc(C)c(C(=O)N[C@H]3C[C@H]4CN(C)CCN4C3)n2c1 [Example 314, 8-[(2,6-Difluorobenzyl)oxy]-2,6-dimethyl-N-[(7S,8aS)-2-methyloctahydropyrrolo[1,2-a]pyrazin-7-yl]imidazo[1,2-a]pyridine-3-carboxamide] | 0.30 µM
Cc1cc(OCc2c(F)cccc2F)c2nc(C)c(C(=O)NCC(C)(N)C(F)(F)F)n2c1 (racemic) [Example 239, rac-N-(2-Amino-3,3,3-trifluoro-2-methylpropyl)-8-[(2,6-difluorobenzyl)oxy]-2,6-dimethyl-imidazo[1,2-a]pyridine-3-carboxamide] | 0.30 µM
Cc1nc2c(OCc3cccc(F)c3F)cccn2c1C(=O)NC(CN)c1ccc(F)c(F)c1 (stereo not shown) [Example 99] | 1.00 µM
COCC(N)CNC(=O)c1c(C)nc2c(OCc3c(F)cccc3F)cc(C)cn12 (single isomer, unassigned) [Example 243, ent-N-(2-Amino-3-methoxypropyl)-8-[(2,6-difluorobenzyl)oxy]-2,6-dimethylimidazo[1,2-a]-pyridine-3-carboxamide] | 1.00 µM
CCCC(C)(N)CNC(=O)c1c(C)nc2c(OCc3ccccc3Cl)cc(C)cn12 (racemic) [Example 343, rac-N-(2-amino-2-methylpentyl)-8-[(2-chlorobenzyl)oxy]-2,6-dimethylimidazo[1,2-a]pyridine-3-carboxamide] | 1.00 µM
CC[C@@H](N)CNC(=O)c1c(C)nc2c(OCc3c(F)cccc3F)cc(Cl)cn12 [Example 35, ent-N-[(2R)-2-aminobutyl]-6-chloro-8-[(2,6-difluorobenzyl)oxy]-2-methyl-imidazo[1,2-a]-pyridine-3-carboxamide] | 1.00 µM
Cc1cc(OCc2c(F)cccc2F)c2nc(C)c(C(=O)NCC(C)(N)CCO)n2c1 (racemic) [Example 270, rac-N-(2-Amino-4-hydroxy-2-methylbutyl)-8-[(2,6-difluorobenzyl)oxy]-2,6-dimethylimidazo[1,2-a]pyridine-3-carboxamide] | 1.00 µM
Cc1nc2c(OCc3c(F)cccc3F)cccn2c1C(=O)NCC(C)(N)CCOCc1ccccc1 (single isomer, unassigned; enantiomer b) [Example 267, ent-N-[2-Amino-4-(benzyloxy)-2-methylbutyl]-8-[(2,6-difluorobenzyl)oxy]-2-methylimidazo[1,2-a]pyridine-3-carboxamide (Enantiomer B)] | 0.10 µM
Cc1nc2c(OCc3c(F)cccc3F)cccn2c1C(=O)NCC(C)(N)CC(C)C (racemic) [Example 202, rac-N-(2-Amino-2,4-dimethylpentyl)-8-[(2,6-difluorobenzyl)oxy]-2-methylimidazo[1,2-a]pyridine-3-carboxamide] | 0.10 µM
Cc1nc2c(OCc3c(F)cccc3F)cc(F)cn2c1C(=O)NCC(C)(C)N [Example 140, N-(2-Amino-2-methylpropyl)-8-[(2,6-difluorobenzyl)oxy]-6-fluoro-2-methylimidazo[1,2-a]-pyridine-3-carboxamide] | 1.00 µM
Cc1nc2c(OCc3c(F)cccc3F)cccn2c1C(=O)NCCN(C)C [Example 86, 8-[(2,6-difluorobenzyl)oxy]-N-[2-(dimethyl-amino)ethyl]-2-methylimidazo[1,2-a]pyridine-3-carboxamide] | 2.00 µM
Cc1cc(OCc2c(F)cccc2F)c2nc(C)c(C(=O)NCC(N)c3csc4ccccc34)n2c1 (racemic) [Example 373, rac-N-[2-amino-2-(1-benzothiophen-3-yl)ethyl]-8-[(2,6-difluorobenzyl)oxy]-2,6-dimethylimidazo[1,2-a]pyridine-3-carboxamide] | 3.00 µM
Cc1nc2c(OCc3c(F)cccc3F)cccn2c1C(=O)NC(C)[C@H](C)N (single isomer, unassigned) [Example 174] | 0.30 µM
